Reference: patent publication US20180318280A1 (Salmon Pharma GmbH, priority 2017, published 2018)

Assays:
[1] = test system: S-phosphate, fractional phosphate elimination, FGF23; test: DBA/2 mice: S-phosphate, fractional phosphate elimination, FGF23; type: in vivo, mouse; conditions: for FGF23 / fractional phosphate elimination: DBA/2 mice
Excerpt: For this purpose, 5/6 nephrectomized DBA/2 mice were used as model for vascular calcification.

[2] = given in combination with the phosphate binder sevelamer; cited from earlier work
serum phosphate = test: Phase II dose finding study (DONATO), patients on hemodialysis: serum phosphate; type: in vivo, human; conditions: for a 0.22603 mmol/l phosphate level reduction against compare group; dose response of modified release capsules, 4 weeks
Excerpt: Secondary outcome criteria included a comparison of the two different […] of nicotinamide by means of several measures of safety and efficacy.

GPR109A receptor = GPR109A receptor (Homo sapiens, UniProt Q8TDS4); conditions: cited from earlier work
Chain of GPR109A receptor (Q8TDS4 whole entry): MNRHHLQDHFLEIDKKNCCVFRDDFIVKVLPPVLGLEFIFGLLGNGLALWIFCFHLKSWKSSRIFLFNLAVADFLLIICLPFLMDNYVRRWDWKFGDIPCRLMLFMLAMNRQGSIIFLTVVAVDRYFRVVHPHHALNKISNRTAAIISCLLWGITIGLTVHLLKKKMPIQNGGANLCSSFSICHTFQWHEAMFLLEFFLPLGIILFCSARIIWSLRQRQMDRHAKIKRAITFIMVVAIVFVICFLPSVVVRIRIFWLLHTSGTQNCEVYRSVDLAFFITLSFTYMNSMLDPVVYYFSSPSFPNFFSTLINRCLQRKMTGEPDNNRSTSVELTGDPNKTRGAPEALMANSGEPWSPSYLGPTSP

SMILES: O=C([O-])[O-].[Mg+2] [magnesium carbonate]
- FGF23 [1]: reduction
- fractional phosphate elimination [1]: reduction

SMILES: NC(=O)c1cccnc1 [nicotinamide]
- treatment of hyperphosphatemia [2]: ineffective
- minimum effective dose (serum phosphate): 450 mg
- binding to or effect on the GPR109A receptor (GPR109A receptor): does not bind or otherwise affect
- FGF23 [1]: reduction
- fractional phosphate elimination [1]: reduction
- S-phosphate ([1]; only in healthy DBA/2 mice with high phosphate diet, NA in the drinking water): decrease
